# Assay results published in PubChem BioAssay AID330 (DTP/NCI, 2004).
# Where “and” joins values, the source holds several entries; their conditions need not be identical. Equal entries are not always repeated. Inconclusive results and toxic doses are left out.
# Tested on: P388 leukemia ip, CD2F1 mice, survival T/C
# Test: NCI In Vivo Anticancer Drug Screen. Data for tumor model P388 Leukemia (intraperitoneal) in CD2F1 (CDF1) mice
# Settings: endpoint: median survival time, higher = longer survival
# In short: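 Mice carrying the transplanted tumor received test compound or vehicle. Survival was recorded in each group, and the value is the treated-group measurement divided by that of the vehicle-treated control group.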
# [1] = dose: 50.0 mg/kg/injection, schedule: Q01DX005 (ip), vehicle: Klucel (hydroxypropylcellulose) (HPC)
# [2] = dose: 100.0 mg/kg/injection, schedule: Q01DX005 (ip), vehicle: Klucel (hydroxypropylcellulose) (HPC)
# [3] = dose: 60.0 mg/kg/injection, schedule: Q01DX005 (ip), vehicle: saline with Tween-80
# [4] = dose: 120.0 mg/kg/injection, schedule: Q01DX005 (ip), vehicle: saline with Tween-80
# [5] = dose: 50.0 mg/kg/injection, schedule: Q01DX009 (ip), vehicle: Klucel (hydroxypropylcellulose) (HPC)
# [6] = dose: 100.0 mg/kg/injection, schedule: Q01DX009 (ip), vehicle: Klucel (hydroxypropylcellulose) (HPC)
# [7] = dose: 60.0 mg/kg/injection, schedule: Q01DX005 (ip), vehicle: Klucel (hydroxypropylcellulose) (HPC)
# [8] = dose: 120.0 mg/kg/injection, schedule: Q01DX005 (ip), vehicle: Klucel (hydroxypropylcellulose) (HPC)
# [9] = dose: 240.0 mg/kg/injection, schedule: Q01DX005 (ip), vehicle: Klucel (hydroxypropylcellulose) (HPC)
# [10] = dose: 240.0 mg/kg/injection, schedule: Q01DX005 (ip), vehicle: saline with Tween-80
smiles,measurement,setting,value
COc1cccc2c1NC(O)c1cccn1C2=O (stereo not given),T/C,"dose: 0.1 mg/kg/injection, schedule: Q01DX005 (ip), vehicle: water",93 % of control
same,T/C,"dose: 0.2 mg/kg/injection, schedule: Q01DX005 (ip), vehicle: water",93 % of control
same,T/C,"dose: 0.4 mg/kg/injection, schedule: Q01DX005 (ip), vehicle: water",96 % of control
same,T/C,"dose: 0.8 mg/kg/injection, schedule: Q01DX005 (ip), vehicle: water",93 % of control
same,T/C,"dose: 1.6 mg/kg/injection, schedule: Q01DX005 (ip), vehicle: water",98 % of control
same,T/C,"dose: 5.0 mg/kg/injection, schedule: Q01DX005 (ip), vehicle: distilled water + Tween-80",90 % of control
same,T/C,"dose: 10.0 mg/kg/injection, schedule: Q01DX005 (ip), vehicle: distilled water + Tween-80",98 % of control
same,T/C,"dose: 20.0 mg/kg/injection, schedule: Q01DX005 (ip), vehicle: distilled water + Tween-80",100 % of control
same,T/C,"dose: 40.0 mg/kg/injection, schedule: Q01DX005 (ip), vehicle: distilled water + Tween-80",100 % of control
same,T/C,"dose: 80.0 mg/kg/injection, schedule: Q01DX005 (ip), vehicle: distilled water + Tween-80",93 % of control
COC1C2=C(CCCC2)OC(=O)C1(Cl)c1ccccc1 (stereo not given),T/C,[1],96 % of control
same,T/C,[2],101 % of control
same,T/C,"dose: 200.0 mg/kg/injection, schedule: Q01DX005 (ip), vehicle: Klucel (hydroxypropylcellulose) (HPC)",101 % of control
COc1cccc(/C=C/c2ccnnc2)c1OC,T/C,"dose: 50.0 mg/kg/injection, schedule: Q01DX009 (ip), vehicle: saline",104 % of control
same,T/C,"dose: 100.0 mg/kg/injection, schedule: Q01DX009 (ip), vehicle: saline",108 % of control
same,T/C,"dose: 200.0 mg/kg/injection, schedule: Q01DX009 (ip), vehicle: saline",100 % of control
O=C1c2ccccc2C(=O)N1CC1CC(S(=O)(=O)c2ccccc2)=NO1 (stereo not given),T/C,"dose: 50.0 mg/kg/injection, schedule: Q01DX005 (ip), vehicle: saline with Tween-80",94 % of control
same,T/C,"dose: 100.0 mg/kg/injection, schedule: Q01DX005 (ip), vehicle: saline with Tween-80",94 % of control
same,T/C,"dose: 200.0 mg/kg/injection, schedule: Q01DX005 (ip), vehicle: saline with Tween-80",102 % of control
COc1ccc2c(c1OC)C(=O)O/C2=C\c1cc2c(cc1CCN(C)C)OCO2,T/C,"dose: 12.5 mg/kg/injection, schedule: Q01DX001 (ip), vehicle: saline + alcohol",99 % of control
same,T/C,"dose: 25.0 mg/kg/injection, schedule: Q01DX001 (ip), vehicle: saline + alcohol",98 % of control
same,T/C,"dose: 50.0 mg/kg/injection, schedule: Q01DX001 (ip), vehicle: saline + alcohol",99 % of control
COc1cc(O)c(CC=C(C)C)cc1O,T/C,[1],105 % of control
same,T/C,[2],101 % of control
N#Cc1c2ccccc2c(=O)n2ccccc12,T/C,"dose: 100.0 mg/kg/injection, schedule: Q04DX002 (ip), vehicle: Klucel (hydroxypropylcellulose) (HPC)",94 % of control
same,T/C,"dose: 200.0 mg/kg/injection, schedule: Q04DX002 (ip), vehicle: Klucel (hydroxypropylcellulose) (HPC)",88 % of control
same,T/C,"dose: 400.0 mg/kg/injection, schedule: Q04DX002 (ip), vehicle: Klucel (hydroxypropylcellulose) (HPC)",94 % of control
Cc1ccc(S(=O)(=O)c2cc3ccccc3oc2=O)cc1,T/C,[3],91 % of control
same,T/C,[4],88 % of control
O=C(c1ccccc1)C12CCC(CC1)CC2,T/C,[5],94 % of control
same,T/C,[6],94 % of control
same,T/C,"dose: 200.0 mg/kg/injection, schedule: Q01DX009 (ip), vehicle: Klucel (hydroxypropylcellulose) (HPC)",109 % of control
C=C1C(=O)OC2C(OC(=O)CC)CCCC12 (stereo not given),T/C,[7],95 % of control
same,T/C,[8],98 % of control
same,T/C,[9],110 % of control
CCn1c2ccccc2c2cc(N=Nc3ccnc4c(O)cccc34)ccc21,T/C,"dose: 12.5 mg/kg/injection, schedule: Q01DX009 (ip), vehicle: saline with Tween-80",119 % of control
same,T/C,"dose: 25.0 mg/kg/injection, schedule: Q01DX009 (ip), vehicle: saline with Tween-80",117 % of control
same,T/C,"dose: 100.0 mg/kg/injection, schedule: Q01DX009 (ip), vehicle: saline with Tween-80",108 % of control and 97 % of control
O=C1OCc2c1cc1cc3c(cc1c2-c1ccc2c(c1)OCO2)OCO3,T/C,"dose: 12.5 mg/kg/injection, schedule: Q01DX009 (ip), vehicle: Klucel (hydroxypropylcellulose) (HPC)",91 % of control
same,T/C,"dose: 25.0 mg/kg/injection, schedule: Q01DX009 (ip), vehicle: Klucel (hydroxypropylcellulose) (HPC)",100 % of control
same,T/C,[5],100 % of control
same,T/C,[6],98 % of control
COc1ccc(NC(=O)Nc2ccc(NC(C)=O)cc2)c(OC)c1,T/C,"dose: 15.0 mg/kg/injection, schedule: Q01DX005 (ip), vehicle: saline with Tween-80",93 % of control
same,T/C,"dose: 30.0 mg/kg/injection, schedule: Q01DX005 (ip), vehicle: saline with Tween-80",92 % of control
same,T/C,[3],86 % of control
same,T/C,[10],88 % of control
CC1=CC(=O)C=C(C)C1=O,T/C,"dose: 1.56 mg/kg/injection, schedule: Q04DX003 (ip), vehicle: saline with Tween-80",106 % of control
same,T/C,"dose: 3.12 mg/kg/injection, schedule: Q04DX003 (ip), vehicle: saline with Tween-80",89 % of control
same,T/C,"dose: 6.25 mg/kg/injection, schedule: Q04DX003 (ip), vehicle: saline with Tween-80",103 % of control
CC(=O)Nc1cc2cc(N=CN(C)C)ccc2oc1=O,T/C,"dose: 60.0 mg/kg/injection, schedule: Q01DX005 (ip), vehicle: Klucel + Tween-80",99 % of control
same,T/C,"dose: 120.0 mg/kg/injection, schedule: Q01DX005 (ip), vehicle: Klucel + Tween-80",104 % of control
O=C(CNC(=O)Nc1ccc(C2=NCCN2)cc1)Nc1ccc(C2=NCCN2)cc1,T/C,"dose: 22.0 mg/kg/injection, schedule: Q01DX009 (ip), vehicle: saline with Tween-80",95 % of control
same,T/C,"dose: 33.0 mg/kg/injection, schedule: Q01DX009 (ip), vehicle: saline with Tween-80",113 % of control
same,T/C,"dose: 75.0 mg/kg/injection, schedule: Q01DX009 (ip), vehicle: saline with Tween-80",154 % of control
Cc1ccc(SCc2cn(C3OC(CO)C(O)C3O)c(=O)[nH]c2=O)cc1 (stereo not given),T/C,[7],95 % of control and 102 % of control
same,T/C,[8],95 % of control and 101 % of control
same,T/C,[9],92 % of control and 95 % of control
COC(=O)C1CCC(=O)N1Cc1cccs1 (stereo not given),T/C,[3],109 % of control
same,T/C,[4],104 % of control
same,T/C,[10],106 % of control
CCOP(=S)(N/N=C/c1cccnc1)OCC,T/C,"dose: 100.0 mg/kg/injection, schedule: Q01DX001 (ip), vehicle: Klucel (hydroxypropylcellulose) (HPC)",101 % of control
same,T/C,"dose: 200.0 mg/kg/injection, schedule: Q01DX001 (ip), vehicle: Klucel (hydroxypropylcellulose) (HPC)",101 % of control
same,T/C,"dose: 400.0 mg/kg/injection, schedule: Q01DX001 (ip), vehicle: Klucel (hydroxypropylcellulose) (HPC)",108 % of control
COc1ccc([N+](=O)[O-])cc1Nc1c2ccccc2nc2ccccc12,T/C,"dose: 50.0 mg/kg/injection, schedule: Q01DX009 (ip), vehicle: suspension in saline",100 % of control
same,T/C,"dose: 100.0 mg/kg/injection, schedule: Q01DX009 (ip), vehicle: suspension in saline",110 % of control
same,T/C,"dose: 200.0 mg/kg/injection, schedule: Q01DX009 (ip), vehicle: suspension in saline",101 % of control
COc1ccc(S(N)(=O)=O)cc1[N+](=O)[O-],T/C,"dose: 100.0 mg/kg/injection, schedule: Q04DX003 (ip), vehicle: Klucel (hydroxypropylcellulose) (HPC)",97 % of control
same,T/C,"dose: 200.0 mg/kg/injection, schedule: Q04DX003 (ip), vehicle: Klucel (hydroxypropylcellulose) (HPC)",104 % of control
same,T/C,"dose: 400.0 mg/kg/injection, schedule: Q04DX003 (ip), vehicle: Klucel (hydroxypropylcellulose) (HPC)",97 % of control
N#CN=[N+]([O-])c1ccc(Br)cc1,T/C,"dose: 6.25 mg/kg/injection, schedule: Q04DX003 (ip), vehicle: Klucel (hydroxypropylcellulose) (HPC)",108 % of control
same,T/C,"dose: 12.5 mg/kg/injection, schedule: Q04DX003 (ip), vehicle: Klucel (hydroxypropylcellulose) (HPC)",108 % of control
same,T/C,"dose: 25.0 mg/kg/injection, schedule: Q04DX003 (ip), vehicle: Klucel (hydroxypropylcellulose) (HPC)",90 % of control
c1cc(Oc2ccc3ccncc3c2)c2ccncc2c1,T/C,"dose: 100.0 mg/kg/injection, schedule: Q01DX001 (ip), vehicle: saline with Tween-80",100 % of control
same,T/C,"dose: 200.0 mg/kg/injection, schedule: Q01DX001 (ip), vehicle: saline with Tween-80",100 % of control
same,T/C,"dose: 400.0 mg/kg/injection, schedule: Q01DX001 (ip), vehicle: saline with Tween-80",95 % of control
